Results reported in paper PMC11540889, “In Vitro Cytotoxicity of Fluorinated Quaternary Ammonium Salts in Colorectal Cancer Cells and In Silico Pharmacology” (Advances in Pharmacological and Pharmaceutical Sciences, 2024).

Tests used:
[1] = system: SW948 (Dukes' Type C, Grade III, premetastatic colorectal adenocarcinoma); test: MTT cytotoxicity, SW948 cells; conditions: for CC50: SW948 cells, MTT, 48 h, mean ± SD; for Index of selectivity MCRT / SW948: IS = CC50 MCRT ÷ CC50 SW948; for Index of selectivity PBMC / SW948: IS = CC50 PBMC ÷ CC50 SW948
Description: (§1) The compounds were solubilized in dimethyl sulfoxide (DMSO, Fischer Chemical, NJ, USA) at 50,000 μg/mL and stored at −20°C until use. From the stock solution, six serial 1:2 double dilutions of each compound were prepared to start with concentrations of 100, 50, 25, 12.5, 6.25, and 3.125 μg/mL, respectively. 5-FU, one of the conventional drugs to treat CRC [34], was used as an antitumor compound control at concentrations ranging between 800 and 0.625 μM.
(§2) SW948 (Dukes' Type C, Grade III, premetastatic colorectal adenocarcinoma—CCL-237), SW48 (Dukes' Type C, Grade IV, noninvasive colorectal adenocarcinoma—CCL231), and SW620 (Dukes' Type C, Grade IV invasive colorectal adenocarcinoma—CCL227) (American Type Culture Collection Manassas, VA, USA) were maintained in standard conditions at 37°C, without a CO2 atmosphere. PBMCs and MCRT were used as nontumoral control cells. PBMCs were obtained by healthy donors, separated using Histopaque-1077 (Sigma-Aldrich) and cultured in RPMI-1640 medium (Sigma-Aldrich) supplemented with 10% SFB and 1% penicillin/streptomycin [46]. In turn, MCRT were obtained from healthy BALB/c mice; for this, mice were euthanized with CO2 after previous sedation, the colorectal tissue removed, cleaned up, and cut into 2 × 2 mm pieces, suspended in supplemented DMEM, and used immediately after collection. […] Moreover, the inclusion of PBMC also served to assess the systemic toxicity of FQAS.
(§3) The cytotoxic activity of synthesized FQASs and QASs was studied by measuring cell viability/mortality, determined with the MTT (3-(4,5-dimethylthiazol-2-yl)-2,5-diphenyl tetrazole bromide) method (VWR Chemicals and Reagents Avantor), upon exposure of each cell line to six serial dilutions of the different compounds independently. Unexposed cells were included as viability controls, and cells exposed to 5-FU were included as cytotoxicity controls. Briefly, cells were adjusted to 200,000 cells/mL in the corresponding supplemented culture medium, and 100 μL (20,000 cells/well) were dispensed into each 96-well cell culture plate (Nunc, Thermo Fisher Scientific). Twelve hours after seeding the monolayer, 100 μL dilution of each compound was added to each well; the plates containing CRC were incubated at 37°C in the absence of CO2, while plates with PBMCs and MCRT were incubated at 37°C and 5% CO2 atmosphere. For MCRT, each piece was placed into each well of a 96-well plate and exposed to each dilution of the FQASs and QASs. After 48 h of incubation, 30 μL/well of MTT (5 mg/mL) was added, and plates were left at 37°C for 3 h, protected from light. After this time, 100 μL/well of DMSO was added to solubilize the formazan crystals formed. Plates were read at 570 nm on a Varioskan plate reader (Thermo Fisher), and nonspecific absorbance was corrected by subtracting the optical densities (OD) of the blank solutions corresponding to the supplemented culture media (RPMI 1640, DMEM, or L-15 media) and 0.5% DMSO. Each concentration of the FQASs, QASs, and controls was evaluated in duplicate in three independent experiments.
(§4) The percentages of viability (equation (1)) and mortality (equation (2)) were calculated with the net OD:(1) % viability=OD treated cell÷nontreated cells×100, (2) % mortality=100−% viability.
(§5) The %mortality data for each compound concentration was recorded, and the median cytotoxic concentration (CC50), corresponding to the concentration at which 50% of cell death occurs, was calculated using GraphPad Prism 8 software (GraphPad, Software, Inc., La Jolla, CA, USA). […] Lastly, the index of selectivity (IS) was calculated by dividing the CC50 value obtained for control cells (MCRT and PBMCs) by the CC50 value obtained for each CRC cell phenotype using the formula: IS = CC50 (MCRT or PBMC) ÷ CC50 (SW948, SW48 or SW620).

[2] = system: SW48 (Dukes' Type C, Grade IV, noninvasive colorectal adenocarcinoma); test: MTT cytotoxicity, SW48 cells; conditions: for CC50: SW48 cells, MTT, 48 h, mean ± SD; for Index of selectivity MCRT / SW48: IS = CC50 MCRT ÷ CC50 SW48; for Index of selectivity PBMC / SW48: IS = CC50 PBMC ÷ CC50 SW48
Description: as §1, §2, §3, §4, §5

[3] = system: SW620 (Dukes' Type C, Grade IV invasive colorectal adenocarcinoma); test: MTT cytotoxicity, SW620 cells; conditions: for CC50: Homo sapiens; for Index of selectivity MCRT / SW620: IS = CC50 MCRT ÷ CC50 SW620; for Index of selectivity PBMC / SW620: IS = CC50 PBMC ÷ CC50 SW620
Description: as §1, §2, §3, §4, §5

[4] = Ex vivo MTT cytotoxicity, healthy murine colorectal tissue; assay type: cell-based, BALB/c mice; conditions: BALB/c, mouse, healthy murine colorectal tissue (MCRT) pieces, ex vivo, nontumoral control, MTT, 48 h, mean ± SD
Description: as §1, §2, §3, §4, §5

[5] = system: healthy murine colorectal tissue (MCRT); test: as above; assay type: cell-based, BALB/c mice
Description: as §1, §2, §3, §4, §5

[6] = MTT cytotoxicity, peripheral blood mononuclear cells; assay type: cell-based; conditions: human, peripheral blood mononuclear cells (PBMC); PBMC, nontumoral control, MTT, 48 h, mean ± SD
Description: as §1, §2, §3, §4, §5

[7] = system: peripheral blood mononuclear cells (PBMC); test: as above; assay type: cell-based; conditions: PBMCs
Description: as §1, §2, §3, §4, §5

[8] = system: CRC cell lines SW48, SW620, and SW948; test: MTT cytotoxicity across CRC cell lines (pooled statements, selectivity between lines); assay type: cell-based; conditions: for Index of selectivity SW48 vs. SW620: IS = CC50 SW48 ÷ CC50 SW620; for Index of selectivity SW948 vs. SW48: IS = CC50 SW948 ÷ CC50 SW48; for Index of selectivity SW948 vs. SW620: IS = CC50 SW948 ÷ CC50 SW620
Description: as §1, §2, §3, §4
The %mortality data for each compound concentration was recorded, and the median cytotoxic concentration (CC50), corresponding to the concentration at which 50% of cell death occurs, was calculated using GraphPad Prism 8 software (GraphPad, Software, Inc., La Jolla, CA, USA). […]

| SMILES | CC50 ([1]; Homo sapiens, SW948, 48 h) [µM] | Index of selectivity MCRT / SW948 [1] | Index of selectivity PBMC / SW948 [1] | CC50 ([2]; Homo sapiens, SW48, 48 h) [µM] | Index of selectivity MCRT / SW48 [2] | Index of selectivity PBMC / SW48 [2] | CC50 ([3]; 48 h) [µM] | Index of selectivity MCRT / SW620 [3] | Index of selectivity PBMC / SW620 [3] | CC50 at 48 h [4] [µM] | cytotoxicity in words [5] | CC50 at 48 h [6] [µM] | cytotoxicity in words [7] | Index of selectivity SW48 vs. SW620 [8] | Index of selectivity SW948 vs. SW48 [8] | Index of selectivity SW948 vs. SW620 [8] | CC50 [1] [µM] | CC50 [2] [µM] | CC50 ([3]; SW-620) [µM] |
| --- | --- | --- | --- | --- | --- | --- | --- | --- | --- | --- | --- | --- | --- | --- | --- | --- | --- | --- | --- |
| C[N+](C)(CI)CCCCC=C(c1ccccc1)c1ccccc1 [Compound 16] | 71 ± 12.4 | 1.9 | 0.6 | 65.2 ± 3.7 | 2.1 | 0.6 | 72.9 ± 4.2 | 1.9 | 0.5 | 135 ± 11.8 | noncytotoxic | 38.8 ± 5.6 | highly cytotoxic | 0.9 | 1.1 | 1.0 |  |  |  |
| C[N+](C)(CCl)CCCC=C(c1cccc(C(F)(F)F)c1)c1cccc(C(F)(F)F)c1 [Compound 5] | 24.5 | 2.8 | 0.8 | 43.5 | 2.3 | 0.66 | 24.5 ± 2.3 | 4.9 | 1.4 | 121 ± 5.4 |  | 34.8 ± 6 |  | 2.1 | 0.8 | 1.8 | 43.5 ± 4 | 52 ± 9.2 | 52 |
| C[N+](C)(C)CCCCC=C(c1ccc(C(F)(F)F)cc1)c1ccc(C(F)(F)F)cc1 [Compound 14] | 49 ± 11.1 | 8.6 | 1.9 | 16.3 | 22.7 | 5.0 | 14.5 ± 2.9 | 28.9 | 6.4 | 419 ± 15 |  | 93.2 ± 13.1 |  | 1.3 | 2.6 | 3.4 |  | 18.5 ± 3.6 |  |
| C[N+](C)(C)CCCC=C(c1ccc(C(F)(F)F)cc1)c1ccc(C(F)(F)F)cc1 [Compound 10] | 13.4 ± 3.9 | 8.9 | 3.8 | 44 ± 6 | 2.7 | 1.2 | 18.8 ± 4.7 | 6.4 | 2.7 | 119 ± 8.7 |  | 51.4 ± 5.3 |  | 2.3 | 0.3 | 0.7 |  |  |  |
| C[N+](C)(CI)CCCC=C(c1ccccc1)c1ccccc1 [Compound 15] | 98.2 ± 4.3 | 2.6 | 0.3 | 124 ± 2.3 | 2.1 | 0.2 | 158 ± 2.3 | 1.6 | 0.2 | 256 ± 14 | moderate cytotoxicity | 29.3 ± 1.4 | highly cytotoxic | 0.8 | 0.8 | 0.6 |  |  |  |
| C[N+](C)(CI)CCCCC=C(c1ccc(C(F)(F)F)cc1)c1ccc(C(F)(F)F)cc1 [Compound 13] | 26.9 ± 4 |  | 2.0 | 18.5 |  | 3.3 | 16 ± 1.5 |  | 3.4 | > 293 |  | 53.9 ± 3 |  | 1.0 | 1.7 | 1.7 |  | 16.3 ± 2 |  |
| C[N+](C)(CI)CCCCC=C(c1cccc(C(F)(F)F)c1)c1cccc(C(F)(F)F)c1 [Compound 11] | 21.5 ± 4.5 | 4.4 | 1.6 | 22.1 ± 4 | 4.2 | 1.5 | 18.1 ± 3.7 | 5.2 | 1.9 | 93.5 ± 13.9 |  | 33.4 ± 2 |  | 1.2 | 1.0 | 1.2 |  |  |  |
